{"source": "the supplement of paper PMC7017272", "settings_in_all_cases": "treatment time: 3 days", "key": {"UT-SCC-24A": {"test_system": "UT-SCC-24A", "assay": "drug sensitivity score (DSS); higher = more sensitive", "protocol": "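HNSCC cell lines (500 cells/well, 384-well) were cultured on plastic, on top of (2D) or embedded (3D) in Matrigel or human leiomyoma matrix Myogel (500 ug/mL; Myogel 3D mixed with rat collagen I). Cells were treated for 3 days with 5 ten-fold concentrations of each drug, and viability was read by CellTiter-Glo. Suffixes _1/_2/_3 on drug names are replicates.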"}, "UT-SCC-106A": {"test_system": "UT-SCC-106A", "assay": "drug sensitivity score (DSS); higher = more sensitive; extreme values may be limits of the assay", "procedure,_shortened": "(§1)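 HPV-negative HNSCC cell lines were seeded at 500 cells/well in 384-well plates on plastic, on Matrigel- or Myogel-coated wells (500 µg/mL), or embedded in Matrigel or Myogel plus rat collagen I. Compounds were given at five 10-fold concentrations for 3 days, and viability was read by CellTiter-Glo 2.0 luminescence. Signals were normalised to vehicle (0.1% DMSO) and cell-killing control wells. Percent-inhibition dose–response curves were fitted in the FIMM pipeline to derive IC50, maximal inhibition and drug sensitivity score.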"}, "UT-SCC-14": {"test_system": "UT-SCC-14", "assay": "drug sensitivity score (DSS); higher = more sensitive; extreme values may be limits of the assay", "procedure,_shortened": "as §1"}, "UT-SCC-24B": {"test_system": "UT-SCC-24B", "assay": "drug sensitivity score (DSS); higher = more sensitive; extreme values may be limits of the assay", "procedure,_shortened": "as §1"}, "UT-SCC-28": {"test_system": "UT-SCC-28", "assay": "drug sensitivity score (DSS); higher = more sensitive; extreme values may be limits of the assay", "procedure,_shortened": "as §1"}, "UT-SCC-40": {"test_system": "UT-SCC-40", "assay": "drug sensitivity score (DSS); higher = more sensitive; extreme values may be limits of the assay", "procedure,_shortened": "as §1"}, "UT-SCC-42A": {"test_system": "UT-SCC-42A", "assay": "drug sensitivity score (DSS); higher = more sensitive; extreme values may be limits of the assay", "procedure,_shortened": "as §1"}, "UT-SCC-42B": {"test_system": "UT-SCC-42B", "assay": "drug sensitivity score (DSS); higher = more sensitive; extreme values may be limits of the assay", "procedure,_shortened": "as §1"}, "UT-SCC-44": {"test_system": "UT-SCC-44", "assay": "drug sensitivity score (DSS); higher = more sensitive; extreme values may be limits of the assay", "procedure,_shortened": "as §1"}, "UT-SCC-73": {"test_system": "UT-SCC-73", "assay": "drug sensitivity score (DSS); higher = more sensitive; extreme values may be limits of the assay", "procedure,_shortened": "as §1"}, "UT-SCC-81": {"test_system": "UT-SCC-81", "assay": "drug sensitivity score (DSS); higher = more sensitive; extreme values may be limits of the assay", "procedure,_shortened": "as §1"}, "UT-SCC-8": {"test_system": "UT-SCC-8", "assay": "drug sensitivity score (DSS); higher = more sensitive; extreme values may be limits of the assay", "procedure,_shortened": "as §1"}, "[1]": {"settings": "culture condition: embedded in Matrigel"}, "[2]": {"settings": "culture condition: on top of Matrigel"}, "[3]": {"settings": "culture condition: on top of Myogel"}, "[4]": {"settings": "culture condition: plastic 2D (no matrix)"}, "[5]": {"settings": "culture condition: embedded in Myogel + collagen I"}}, "note": "± gives the standard deviation of the averaged measurements."}
{"smiles": "COc1cc2ncnc(Nc3ccc(F)c(Cl)c3)c2cc1OCCCN1CCOCC1", "note": "[Gefitinib]", "values": [{"measurement": "drug sensitivity score", "setting": "UT-SCC-24A; [1]", "value": "21.1 ± 1.1", "unit": "DSS"}, {"measurement": "drug sensitivity score", "setting": "UT-SCC-24A; [2]", "value": "17 ± 2.1", "unit": "DSS"}, {"measurement": "drug sensitivity score", "setting": "UT-SCC-24A; [3]", "value": "3.27 ± 2.5", "unit": "DSS"}, {"measurement": "drug sensitivity score", "setting": "UT-SCC-24A; [4]", "value": "16.4 ± 3.7", "unit": "DSS"}, {"measurement": "drug sensitivity score", "setting": "UT-SCC-106A; [1]", "value": "4.63 ± 3.7", "unit": "DSS"}, {"measurement": "drug sensitivity score", "setting": "UT-SCC-106A; [5]", "value": "0.4 ± 0.69", "unit": "DSS"}, {"measurement": "drug sensitivity score", "setting": "UT-SCC-106A; [2]", "value": "8.13 ± 3.1", "unit": "DSS"}, {"measurement": "drug sensitivity score", "setting": "UT-SCC-106A; [3]", "value": "0.1 ± 0.17", "unit": "DSS"}, {"measurement": "drug sensitivity score", "setting": "UT-SCC-106A; [4]", "value": "7.53 ± 1", "unit": "DSS"}, {"measurement": "drug sensitivity score", "setting": "UT-SCC-14; [5]", "value": "1.63 ± 2.7", "unit": "DSS"}, {"measurement": "drug sensitivity score", "setting": "UT-SCC-14; [2]", "value": "3.87 ± 2.3", "unit": "DSS"}, {"measurement": "drug sensitivity score", "setting": "UT-SCC-14; [3]", "value": "3.33 ± 3", "unit": "DSS"}, {"measurement": "drug sensitivity score", "setting": "UT-SCC-14; [4]", "value": "2.6 ± 4.5", "unit": "DSS"}, {"measurement": "drug sensitivity score", "setting": "UT-SCC-24B; [1]", "value": "12.5 ± 1.3", "unit": "DSS"}, {"measurement": "drug sensitivity score", "setting": "UT-SCC-24B; [5]", "value": "10.1 ± 3.4", "unit": "DSS"}, {"measurement": "drug sensitivity score", "setting": "UT-SCC-24B; [2]", "value": "12.4 ± 1", "unit": "DSS"}, {"measurement": "drug sensitivity score", "setting": "UT-SCC-24B; [3]", "value": "5.73 ± 1.2", "unit": "DSS"}, {"measurement": "drug sensitivity score", "setting": "UT-SCC-24B; [4]", "value": "17.5 ± 0.64", "unit": "DSS"}, {"measurement": "drug sensitivity score", "setting": "UT-SCC-28; [1]", "value": "0.767 ± 1.3", "unit": "DSS"}, {"measurement": "drug sensitivity score", "setting": "UT-SCC-28; [5]", "value": 0, "unit": "DSS"}, {"measurement": "drug sensitivity score", "setting": "UT-SCC-28; [2]", "value": "0.433 ± 0.75", "unit": "DSS"}, {"measurement": "drug sensitivity score", "setting": "UT-SCC-28; [4]", "value": 0, "unit": "DSS"}, {"measurement": "drug sensitivity score", "setting": "UT-SCC-40; [1]", "value": "6.87 ± 1.9", "unit": "DSS"}, {"measurement": "drug sensitivity score", "setting": "UT-SCC-40; [5]", "value": "2.33 ± 2.6", "unit": "DSS"}, {"measurement": "drug sensitivity score", "setting": "UT-SCC-40; [2]", "value": "3.7 ± 0.7", "unit": "DSS"}, {"measurement": "drug sensitivity score", "setting": "UT-SCC-40; [3]", "value": "0.433 ± 0.51", "unit": "DSS"}, {"measurement": "drug sensitivity score", "setting": "UT-SCC-40; [4]", "value": "0.267 ± 0.25", "unit": "DSS"}, {"measurement": "drug sensitivity score", "setting": "UT-SCC-42A; [5]", "value": 0, "unit": "DSS"}, {"measurement": "drug sensitivity score", "setting": "UT-SCC-42A; [2]", "value": "5 ± 4", "unit": "DSS"}, {"measurement": "drug sensitivity score", "setting": "UT-SCC-42A; [3]", "value": "1.43 ± 1.6", "unit": "DSS"}, {"measurement": "drug sensitivity score", "setting": "UT-SCC-42A; [4]", "value": "2 ± 1.4", "unit": "DSS"}, {"measurement": "drug sensitivity score", "setting": "UT-SCC-42B; [1]", "value": "12.3 ± 6.1", "unit": "DSS"}, {"measurement": "drug sensitivity score", "setting": "UT-SCC-42B; [2]", "value": "2.67 ± 4.6", "unit": "DSS"}, {"measurement": "drug sensitivity score", "setting": "UT-SCC-42B; [3]", "value": 0, "unit": "DSS"}, {"measurement": "drug sensitivity score", "setting": "UT-SCC-42B; [4]", "value": "1.07 ± 1.7", "unit": "DSS"}, {"measurement": "drug sensitivity score", "setting": "UT-SCC-44; [1]", "value": 0, "unit": "DSS"}, {"measurement": "drug sensitivity score", "setting": "UT-SCC-44; [5]", "value": "0.567 ± 0.98", "unit": "DSS"}, {"measurement": "drug sensitivity score", "setting": "UT-SCC-44; [2]", "value": "0.5 ± 0.7", "unit": "DSS"}, {"measurement": "drug sensitivity score", "setting": "UT-SCC-44; [3]", "value": "1.03 ± 1.5", "unit": "DSS"}, {"measurement": "drug sensitivity score", "setting": "UT-SCC-44; [4]", "value": "0.167 ± 0.29", "unit": "DSS"}, {"measurement": "drug sensitivity score", "setting": "UT-SCC-73; [1]", "value": "0.0667 ± 0.12", "unit": "DSS"}, {"measurement": "drug sensitivity score", "setting": "UT-SCC-73; [5]", "value": "1.73 ± 3", "unit": "DSS"}, {"measurement": "drug sensitivity score", "setting": "UT-SCC-73; [2]", "value": "1.23 ± 2.1", "unit": "DSS"}, {"measurement": "drug sensitivity score", "setting": "UT-SCC-73; [3]", "value": "0.133 ± 0.15", "unit": "DSS"}, {"measurement": "drug sensitivity score", "setting": "UT-SCC-73; [4]", "value": "0.2 ± 0.27", "unit": "DSS"}, {"measurement": "drug sensitivity score", "setting": "UT-SCC-81; [1]", "value": "23.2 ± 0.32", "unit": "DSS"}, {"measurement": "drug sensitivity score", "setting": "UT-SCC-81; [5]", "value": "1.57 ± 2.7", "unit": "DSS"}, {"measurement": "drug sensitivity score", "setting": "UT-SCC-81; [2]", "value": "10.8 ± 5.8", "unit": "DSS"}, {"measurement": "drug sensitivity score", "setting": "UT-SCC-81; [3]", "value": "1 ± 1.1", "unit": "DSS"}, {"measurement": "drug sensitivity score", "setting": "UT-SCC-81; [4]", "value": "3.83 ± 5.2", "unit": "DSS"}, {"measurement": "drug sensitivity score", "setting": "UT-SCC-8; [1]", "value": "14 ± 4.7", "unit": "DSS"}, {"measurement": "drug sensitivity score", "setting": "UT-SCC-8; [5]", "value": 0, "unit": "DSS"}, {"measurement": "drug sensitivity score", "setting": "UT-SCC-8; [2]", "value": "7.87 ± 2.8", "unit": "DSS"}, {"measurement": "drug sensitivity score", "setting": "UT-SCC-8; [3]", "value": "2.4 ± 3.8", "unit": "DSS"}, {"measurement": "drug sensitivity score", "setting": "UT-SCC-8; [4]", "value": "5.97 ± 4.5", "unit": "DSS"}]}
